Measurements reported in ChEMBL document CHEMBL5500414 (J Med Chem, 2024).
pEC50, pIC50, pKi: −log10 of the molar value.

How the values were obtained:
BCL2A1/BID [1] = target: T1, BCL2A1/BID (Homo sapiens, UniProt Q16548)
T1 sequence (Q16548 whole entry): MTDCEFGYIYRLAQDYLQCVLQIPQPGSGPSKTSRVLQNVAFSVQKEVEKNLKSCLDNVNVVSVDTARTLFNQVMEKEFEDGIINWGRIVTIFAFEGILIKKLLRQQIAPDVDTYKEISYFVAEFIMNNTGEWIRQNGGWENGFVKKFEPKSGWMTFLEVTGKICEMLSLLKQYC
T1 sequence (P55957 whole entry): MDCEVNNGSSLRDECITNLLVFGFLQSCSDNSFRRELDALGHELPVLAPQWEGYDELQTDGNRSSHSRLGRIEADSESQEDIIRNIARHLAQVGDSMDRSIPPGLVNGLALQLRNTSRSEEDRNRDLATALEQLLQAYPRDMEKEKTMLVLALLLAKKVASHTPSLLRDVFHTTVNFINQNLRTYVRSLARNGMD

[2] = target: Induced myeloid leukemia cell differentiation protein Mcl-1/BH3-interacting domain death agonist (Homo sapiens, UniProt Q07820)
Induced myeloid leukemia cell differentiation protein Mcl-1/BH3-interacting domain death agonist, sequence (Q07820 whole entry, one chain of several, the tested form may be a part): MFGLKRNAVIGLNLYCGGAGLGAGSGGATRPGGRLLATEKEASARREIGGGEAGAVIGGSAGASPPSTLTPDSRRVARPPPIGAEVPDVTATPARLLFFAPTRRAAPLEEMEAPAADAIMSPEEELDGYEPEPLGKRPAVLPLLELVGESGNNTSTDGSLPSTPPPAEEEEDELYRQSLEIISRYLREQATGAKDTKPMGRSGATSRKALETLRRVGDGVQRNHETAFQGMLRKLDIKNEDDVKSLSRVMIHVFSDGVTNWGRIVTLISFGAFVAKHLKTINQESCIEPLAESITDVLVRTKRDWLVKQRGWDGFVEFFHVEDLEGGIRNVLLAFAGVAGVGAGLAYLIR
Description: Inhibition of MCL-1 (unknown origin)/FAM-BID (unknown origin) interaction measured by fluorescence polarization assay

Pfeiffer = assay: Antiproliferative activity against human Pfeiffer cells expressing high BCL-2/BFL-1 assessed as cell viability measured after 72 hrs by Cell Counting Kit-8 assay
MV4-11 = assay: Antiproliferative activity against human MV4-11 cells expressing high BCL-2 assessed as cell viability measured after 72 hrs by Cell Counting Kit-8 assay; settings: MV4-11, 72 h
[3] = Glutathione reactivity assessed as half life
BCL2A1/BID [4] = target: T1, BCL2A1/BID; remark: listed apart in the source
Description: Inhibition of BFL-1 (unknown origin)/FITC-conjugated Bid BH3 peptide (unknown origin) interaction by fluorescence polarization assay

Row | SMILES | pKi (BCL2A1/BID [1]) | other results
1 | C=CC(=O)N(CC)Cc1ccc2c(c1)CCC(CN1CCN(c3ccc(C(=O)O)cc3)CC1)=C2c1ccc(Cl)cc1 | 6.47 | –
2 | C=CC(=O)Nc1ccc2c(c1)CCC(CN1CCN(c3ccc(C(=O)O)cc3)CC1)=C2c1ccc(Cl)cc1Cl | 6.59 | –
3 | C=CC(=O)Nc1ccc2c(c1)CCC(CN1CCN(c3ccc(C(=O)O)cc3-c3ccncc3)CC1)=C2c1ccc(Cl)cc1 | < 4.70 | –
4 | C=CC(=O)N(CCC)c1ccc2c(c1)CCC(CN1CCN(c3ccc(C(=O)O)cc3)CC1)=C2c1ccc(Cl)cc1CC | 6.91 | pKi [2]: 5.36
5 | C=CC(=O)N(C)c1ccc2c(c1)CCC(CN1CCN(c3ccc(C(=O)O)cc3)CC1)=C2c1ccc(Cl)cc1CC | 6.66 | –
6 | C=CC(=O)Nc1ccc2c(c1)CCC(CN1CCN(c3ccc(C(=O)O)c(Oc4cnc5[nH]ccc5c4)c3)CC1)=C2c1ccc(Cl)cc1 | 6.90 | pKi [2]: 5.63; pIC50 (Pfeiffer): 4.98; pIC50 (MV4-11): 4.70
7 | C=CC(=O)Nc1ccc2c(c1)CCC(CN1CCN(c3ccc(C(=O)O)cc3)CC1)=C2c1ccn[nH]1 | < 4.70 | –
8 | C=CC(=O)N(C)Cc1ccc2c(c1)CCC(CN1CCN(c3ccc(C(=O)O)cc3)CC1)=C2c1ccc(Cl)cc1 | 6.49 | –
9 | C=CC(=O)Nc1ccc2c(c1)CCC(CN1CCN(c3ccc(C(=O)O)cc3)CC1)=C2Br | < 4.70 | –
10 | C=CC(=O)Nc1ccc2c(c1)CCC(CN1CCN(c3ccc(C(=O)O)cc3)CC1)=C2c1cccc(OC)c1 | 6.14 | –
11 | C=CC(=O)Nc1ccc2c(c1)CCC(CN1CCN(Cc3ccc(C(=O)O)cc3)CC1)=C2c1ccc(Cl)cc1 | < 4.70 | –
12 | C=CC(=O)Nc1ccc2c(c1)CCC(CN1CCN(c3ccc(C(=O)O)cc3)CC1)=C2c1ccccc1OC | < 4.70 | –
13 | C=CC(=O)N1CCN(c2c3ccc(-c4cccc(F)c4)cc3nn2Cc2ccccc2)CC1 | 6.33 | –
14 | C=CC(=O)N(C)c1ccc2c(c1)CCC(CN1CCN(c3ccc(C(=O)O)cc3)CC1)=C2c1ccc(Cl)cc1 | 6.43 | –
15 | C=CC(=O)N(CC)c1ccc2c(c1)CCC(CN1CCN(c3ccc(C(=O)O)cc3)CC1)=C2c1ccc(Cl)cc1CC | 6.96 | pIC50 (Pfeiffer): 4.64; pIC50 (MV4-11): 4.47
16 | C=CC(=O)Nc1ccc2c(c1)CCC(CN1CCN(Cc3cccc(C(=O)O)c3)CC1)=C2c1ccc(Cl)cc1 | < 4.70 | –
17 | C=CC(=O)Nc1ccc2c(c1)CCC(CN1CCN(c3ccc(C(=O)O)c(N(C)CCCO)c3)CC1)=C2c1ccc(Cl)cc1 | < 4.70 | –
18 | C=CC(=O)Nc1ccc2c(c1)CCC(CN1CCN(c3ccc(C(=O)O)c(-c4ccccc4)c3)CC1)=C2c1ccc(Cl)cc1 | 6.75 | –
19 | C=CC(=O)Nc1ccc2c(c1)CCC(CN1CCN(c3ccc(C(=O)O)cc3)CC1)=C2c1ccc(Cl)cc1 | 6.28 | –
20 | C=CC(=O)Nc1ccc2c(c1)CCC(CN1CCN(c3ccc(C(=O)O)cc3)CC1)=C2c1cccc2cc[nH]c12 | < 4.70 | –

Row | SMILES | pKi (BCL2A1/BID [1]) | other results
21 | C=CC(=O)Nc1ccc2c(c1)CCC(CN1CCN(c3ccc(C(=O)O)cc3)CC1)=C2c1cnn(C)c1 | < 4.70 | –
22 | C=CC(=O)Nc1ccc2c(c1)CCC(CN1CCN(c3ccc(C(=O)NS(=O)(=O)c4ccccc4)cc3)CC1)=C2c1ccc(Cl)cc1 | < 4.70 | –
23 | C=CC(=O)Nc1ccc2c(c1)CCC(CN1CCN(c3ccc(C(=O)O)c(-c4ccncc4)c3)CC1)=C2c1ccc(Cl)cc1 | 6.43 | –
24 | C=CC(=O)Nc1ccc2c(c1)CCC(CN1CCN(c3ccc(C(=O)OCC)cc3)CC1)=C2c1ccc(Cl)cc1 | < 4.70 | –
25 | CN(C)C/C=C/C(=O)Nc1cc2c(Nc3ccc(F)c(Cl)c3)ncnc2cc1O[C@H]1CCOC1 [AFATINIB] | – | half-life [3]: 13.2 min
26 | CC(=O)N[C@@H](Cc1c[nH]c2ccccc12)C(=O)NCCSSCCN(C)C | – | pEC50 (BCL2A1/BID [4]): 5.89
27 | C=CC(=O)Nc1ccc2c(c1)CCC(CN1CCN(c3ccc(C(=O)O)cc3)CC1)=C2c1ccc(C(=O)O)cc1 | < 4.70 | –
28 | C=CC(=O)N(c1ccc2c(c1)CCC(CN1CCN(c3ccc(C(=O)O)cc3)CC1)=C2c1ccc(Cl)cc1CC)C(C)C | 6.85 | –
29 | C=CC(=O)Nc1ccc2c(c1)CCC(CN1CCN(c3ccc(C(=O)O)cc3)CC1)=C2c1ccc(Cl)cc1C | 6.60 | –
30 | C=CC(=O)Nc1ccc2c(c1)CCC(CN1CCN(c3ccc(C(=O)O)c(N(C)CCCN(C)C)c3)CC1)=C2c1ccc(Cl)cc1 | 6.11 | –
31 | CCOC(=O)CS(=O)(=O)c1nc(-c2ccc(F)cc2)cc(C(F)(F)F)n1 | – | pIC50 (BCL2A1/BID [4]): 5.59
32 | C=CC(=O)Nc1ccc2c(c1)CCC(CN1CCNCC1)=C2c1ccc(Cl)cc1 | < 4.70 | –
33 | C=CC(=O)Nc1ccc2c(c1)CCC(CN1CCN(c3ccc(C(=O)O)cc3)CC1)=C2c1ccncc1 | 5.27 | –
34 | C=CC(=O)Nc1ccc2c(c1)CCC(CN1CCN(c3ccc(C(=O)O)cc3)CC1)=C2c1cn[nH]c1 | < 4.70 | –
35 | C=CC(=O)Nc1ccc2c(c1)CCC(CN1CCN(c3ccc(C(=O)O)cc3-c3ccccc3)CC1)=C2c1ccc(Cl)cc1 | < 4.70 | –
36 | C=CC(=O)Nc1ccc2c(c1)CCC(CN1CCN(c3ccc(C(=O)NS(=O)(=O)c4ccc(NCC5CCOCC5)c([N+](=O)[O-])c4)c(Oc4cnc5[nH]ccc5c4)c3)CC1)=C2c1ccc(Cl)cc1CC | 6.02 | pKi [2]: 5.35; pIC50 (Pfeiffer): 5.14; pIC50 (MV4-11): 5.63
37 | C=CC(=O)Nc1ccc2c(c1)CCC(CN1CCN(c3ccccc3C(=O)O)CC1)=C2c1ccc(Cl)cc1 | < 4.70 | –
38 | CC(C)(C)c1ccc(CN2CCN(S(=O)(=O)Nc3ccc(SCCc4ccccc4)cc3C(=O)O)CC2)cc1 | 6.19 | pIC50 (Pfeiffer): 4.67; pIC50 (MV4-11): 4.34
39 | C=CC(=O)Nc1ccc2c(c1)CCC(CN1CCN(c3ccc(C(=O)O)cc3)CC1)=C2c1ccc(OC)cc1 | < 4.70 | –
40 | C=CC(=O)Nc1ccc2c(c1)CCC(CN1CCN(c3ccc(C(=O)O)cc3)CC1)=C2c1cccc(O)c1 | < 4.70 | –

Row | SMILES | pKi (BCL2A1/BID [1]) | other results
41 | C=CC(=O)Nc1ccc2c(c1)CCC(CN1CCN(c3ccc(C(=O)O)c(Oc4cnc5c(ccn5C)c4)c3)CC1)=C2c1ccc(Cl)cc1 | 6.84 | –
42 | C=CC(=O)Nc1ccc2c(c1)CCC(CN1CCN(c3ccc(C(=O)O)cc3)CC1)=C2c1cccc(Cl)c1 | < 4.70 | –
43 | C=CC(=O)Nc1ccc2c(c1)CCC(CN1CCN(c3ccc(C(=O)O)cc3)CC1)=C2C1CC1 | < 4.70 | –
44 | C=CC(=O)Nc1ccc2c(c1)CCC(CN1CCN(c3ccc(C(=O)O)cc3)CC1)=C2c1ccc(NC(C)=O)cc1 | < 4.70 | –
45 | C=CC(=O)Nc1ccc2c(c1)CCC(CN1CCN(c3ccc(C(=O)O)cc3)CC1)=C2c1ccccc1 | 6.11 | –
46 | C=CC(=O)Nc1ccc2c(c1)CCC(CN1CCN(c3ccc(C(=O)O)cc3)CC1)=C2c1ccc(Cl)cc1OC | 6.02 | –
47 | C=CC(=O)NCc1ccc2c(c1)CCC(CN1CCN(c3ccc(C(=O)O)cc3)CC1)=C2c1ccc(Cl)cc1 | 6.04 | –
48 | C=CC(=O)Nc1ccc2c(c1)CCC(CN1CCN(c3ccc(C(=O)O)cc3)CC1)=C2c1ccc(Cl)cc1CC | 6.80 | –
49 | C=CC(=O)Nc1ccc2c(c1)CCC(CN1CCN(c3ccc(C(=O)O)cc3)CC1)=C2c1ccc(C#N)cc1 | < 4.70 | –
50 | C=CC(=O)Nc1ccc2c(c1)CCC(CN1CCN(c3cccc(C(=O)O)c3)CC1)=C2c1ccc(Cl)cc1 | < 4.70 | –
51 | Nc1ccc2c(c1)CCC(CN1CCN(c3ccc(C(=O)NS(=O)(=O)c4ccc(NCC5CCOCC5)c([N+](=O)[O-])c4)c(Oc4cnc5[nH]ccc5c4)c3)CC1)=C2c1ccc(Cl)cc1 | 5.93 | pKi [2]: 5.32; pIC50 (Pfeiffer): 5.05; pIC50 (MV4-11): 5.35
52 | O=C(CCl)Nc1ccc2c(c1)CCC(CN1CCN(c3ccc(C(=O)O)cc3)CC1)=C2c1ccc(Cl)cc1 | 6.00 | –
53 | CCc1cc(Cl)ccc1C1=C(CN2CCN(c3ccc(C(=O)NS(=O)(=O)c4ccc(NCC5CCOCC5)c([N+](=O)[O-])c4)c(Oc4cnc5[nH]ccc5c4)c3)CC2)CCc2cc(N)ccc21 | 5.95 | pKi [2]: 5.48; pIC50 (Pfeiffer): 5.09; pIC50 (MV4-11): 5.43
54 | C=CC(=O)Nc1ccc2c(c1)CCC(CN1CCN(c3ccc(C(=O)NS(=O)(=O)c4ccc(NCC5CCOCC5)c([N+](=O)[O-])c4)c(Oc4cnc5[nH]ccc5c4)c3)CC1)=C2c1ccc(Cl)cc1 | < 4.70 | pKi [2]: 5.38; pIC50 (Pfeiffer): 5.12; pIC50 (MV4-11): 5.75
55 | C=CC(=O)Nc1ccc2c(c1)CCC(CN1CCN(c3ccc(C(=O)O)cc3)CC1)=C2c1ccc(O)cc1 | < 4.70 | –
56 | C=CC(=O)Nc1ccc2c(c1)CCC(CN1CCN(c3ccc(C(=O)O)cc3)CC1)=C2c1ccc(Cl)cc1F | 6.44 | –
57 | CN1CCN(C2=C(Cl)C(=O)N(c3ccc(Cl)c(Cl)c3)C2=O)CC1 | – | pIC50 (BCL2A1/BID [4]): 6.40
58 | C=CC(=O)Nc1ccc2c(c1)CCC(CN1CCN(c3ccc(C(=O)O)cc3)CC1)=C2c1ccccc1Cl | 6.39 | –
